Values quoted from earlier work, collected in patent publication US20100209503A1, “Bitter Taste Masking Dosage Form” (priority 2005, published 2010).
Structures can show the parent of a compound that is named as a salt.

settings: expression of General Notices of Japanese Pharmacopoeia 14th revision

Q: For Cc1c(C(C)C)c(=O)n(-c2ccccc2)n1C [isopropylantipyrine], which solubility in water is on record?
A: hardly soluble (not less than 0.001 g/mL and less than 0.01 g/mL)

Q: With NC(=O)c1cccnc1 [nicotinic acid amide] as the compound, how does the solubility in water read?
A: easily soluble (not less than 0.1 g/mL and less than 1.0 g/mL)

Q: For CN(C)C(=O)c1nc(CNC(=O)CN)n(-c2ccc(Cl)cc2C(=O)c2ccccc2Cl)n1 [rilmazafone hydrochloride], which solubility in water is on record?
A: slightly soluble (not less than 0.033 g/mL and less than 0.1 g/mL)
